The results in this text go back to ChEMBL document CHEMBL1201862, “PubChem BioAssay data set” (2004).

Structures are written as SMILES.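 Values below derive from 48-hour exposures of cells grown in 96-well plates, with endpoints linearly interpolated between the two concentrations bracketing the appropriate inhibition level. GI50: concentration for 50% inhibition of growth.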 The source made the active and inactive calls. Cut-off read from the data, not from the text of the source: active = GI50 up to about 1.1 µM and inactive = higher.

Holding throughout (assay): NCI-60 cell line screen, 48 h
The test system of test [1] is K562.
Test [2] has as its system HT-29.
Test [3] relates to Malme-3M.
Test [4] concerns OVCAR-5.
Test [5] deals with CAKI-1.
Test [6] relates to SK-MEL-5.
Test [7] has as its system MOLT-4.
For test [8], the system named is A549.
For test [9], the system named is CCRF-CEM.
For test [10], the system named is OVCAR-3.
Test [11] deals with HOP-62.
Test [12] relates to DMS-114.
Test [13] relates to NCI-H460.
The subject of test [14] is SNB-19.
The test system of test [15] is RPMI-8226.
Test [16] has as its system RXF 393.
Test [17] deals with NCI/ADR-RES.
Test [18] concerns MCF7.
Test [19] deals with SF-539.
The subject of test [20] is T47D.

For `N=C(N)NCCCC(NCc1c2ccccc2[n+]([O-])c2ccccc12)C(=O)O` (stereo not drawn), the GI50 in [1] is 29.7 µM (inactive); in [2], 37.3 µM (inactive); in test [3] it was > 100 µM (inactive); in test [4], > 100 µM (inactive); in test [5] it was 60.8 µM (inactive); in test [6] it was 36.4 µM (inactive). Further, the GI50 in test [7] was 27.1 µM (inactive); in test [8], > 100 µM (inactive); in test [9], 24.5 µM (inactive); in test [10] it was > 100 µM (inactive); in [11], > 100 µM (inactive); in [12], 26.4 µM (inactive). Further, the GI50 is 41.6 µM (inactive) in test [13], 55.6 µM (inactive) in [14] and 30.3 µM (inactive) in test [15].

For the compound `O=C(Nc1c(Cl)cc([N+](=O)[O-])cc1Cl)C(=O)C1C(=O)NC(=S)NC1=O`, the GI50 in [16], in test [17], in test [18], in test [1], in [2] and in test [3] was > 100 µM (inactive) each time. Also, the GI50 was > 100 µM (inactive) in test [4]; > 100 µM (inactive) in [5]; > 100 µM (inactive) in test [6]; > 10 µM (inactive) in [7]; > 100 µM (inactive) in test [8]; > 100 µM (inactive) in test [9]. The GI50 in [10], in test [11], in test [13], in test [19], in test [14] and in test [20] was > 100 µM (inactive) throughout. Also, the GI50 in [15] is > 100 µM (inactive).

Take `COC1OC(CBr)C(OC(c2ccccc2)(c2ccccc2)c2ccccc2)C(OC(c2ccccc2)(c2ccccc2)c2ccccc2)C1OC(c1ccccc1)(c1ccccc1)c1ccccc1` (stereo not drawn): the GI50 in test [16] was 33.4 µM (inactive); in test [17] it was 51.6 µM (inactive); in [18] it was 41.7 µM (inactive); in [1], > 100 µM (inactive); in test [2], 96.6 µM (inactive); in test [3], 33.8 µM (inactive). Further, the GI50 was 41 µM (inactive) in test [4]; > 100 µM (inactive) in test [5]; 66.5 µM (inactive) in test [6]; > 100 µM (inactive) in test [7]; 38.9 µM (inactive) in test [8]; > 100 µM (inactive) in test [9]. The GI50 in test [10] was 14.1 µM (inactive); in test [11], 25.2 µM (inactive); in test [13], 46.1 µM (inactive); in test [19], 23.1 µM (inactive); in test [14], 24.3 µM (inactive); in [20], 22.6 µM (inactive). Further, the GI50 in test [15] was 65.3 µM (inactive).

In the case of `c1cc(C[S+]2CCCC2)ccc1C[S+]1CCCC1`, the GI50 in test [16], in [17], in [18], in [1], in test [2] and in test [3] was > 100 µM (inactive) in each case. Besides, the GI50 in [4] is > 100 µM (inactive); in [5] it was > 100 µM (inactive); in test [6] it was > 100 µM (inactive); in test [7] it was > 100 µM (inactive); in test [8], 65.5 µM (inactive); in [9], > 100 µM (inactive). In addition, the GI50 in test [10], in [11], in [13], in [19], in test [14] and in [20] was > 100 µM (inactive) throughout. The GI50 in [15] was > 100 µM (inactive).

In the case of `CC1CCC2[C@@H](C)COC3O[C@]4(C)CCC1C32OO4` (stereo partly drawn), the GI50 in test [16] is > 100 µM (inactive); in test [1], 38.9 µM (inactive); in test [2], > 100 µM (inactive); in test [3], > 100 µM (inactive); in test [4] it was > 100 µM (inactive); in test [5], > 100 µM (inactive). The GI50 was > 100 µM (inactive) in [6]; > 100 µM (inactive) in [8]; 5.15 µM (inactive) in [9]; > 100 µM (inactive) in test [10]; > 100 µM (inactive) in test [11]; > 100 µM (inactive) in test [12]. Further, the GI50 in test [13], in [19] and in test [14] was > 100 µM (inactive) in each case.

Turning to `Oc1ccc(/N=C/c2ccc(/C=N/c3ccc(O)cc3)cc2)cc1`, the GI50 in test [16] was 17.1 µM (inactive); in test [17] it was 14.8 µM (inactive); in test [18], 22.9 µM (inactive); in [1], 17.5 µM (inactive); in [2] it was 19.8 µM (inactive); in test [3], 18 µM (inactive). Besides, the GI50 is 19.3 µM (inactive) in test [4]; 20 µM (inactive) in test [5]; 15 µM (inactive) in [6]; 3.88 µM (inactive) in test [7]; 19.2 µM (inactive) in test [8]; 6.41 µM (inactive) in [9]. Further, the GI50 in [10] was 16.3 µM (inactive); in test [11], 17.6 µM (inactive); in [13], 24.4 µM (inactive); in test [19] it was 15.3 µM (inactive); in [14], 16 µM (inactive); in test [20], 25.7 µM (inactive). Moreover, the GI50 in test [15] is 10.1 µM (inactive).

Consider `CN(C)CCN(c1ccccn1)c1ccccn1`, for which the GI50 in test [16], in [17], in test [18], in [1], in test [2] and in test [3] was > 100 µM (inactive) throughout. Also, the GI50 in test [4], in test [5], in test [6], in test [7], in test [8] and in [9] was > 100 µM (inactive) in each case. The GI50 in [10], in test [11], in test [13], in [19], in test [14] and in test [20] was > 100 µM (inactive) each time. The GI50 in [15] was > 100 µM (inactive).

As for `O=C1c2ccccc2-c2c1c1ccccc1c(=O)n2CCO`, the GI50 in test [16] is 32.1 µM (inactive); in test [17], 14.6 µM (inactive); in test [18], 4.41 µM (inactive); in [1], > 36 µM (inactive); in test [2], 7.14 µM (inactive); in test [3], 26.5 µM (inactive). The GI50 in [4] is > 100 µM (inactive); in test [5], 3.53 µM (inactive); in [6] it was 8.81 µM (inactive); in test [7], 2.14 µM (inactive); in [8], 5.27 µM (inactive); in [9], 3.49 µM (inactive). Moreover, the GI50 was 74 µM (inactive) in test [10]; 5.4 µM (inactive) in [11]; 1.82 µM (inactive) in [13]; 10.6 µM (inactive) in [19]; 6.1 µM (inactive) in [14]; 23.6 µM (inactive) in test [20]. Besides, the GI50 in [15] was > 26.9 µM (inactive).

For the compound `CCN(CC)CCCC(C)Nc1c2cc(OC)cc(C)c2nc2c(C)c(Cl)ccc12` (stereo not drawn), the GI50 in test [16] is 2.09 µM (inactive); in [1], 1.83 µM (inactive); in test [2], 1.62 µM (inactive); in test [3], 1.85 µM (inactive); in test [4] it was 2.1 µM (inactive); in test [5] it was 1.92 µM (inactive). Also, the GI50 in [6] was 1.87 µM (inactive); in [7], 1.74 µM (inactive); in test [8], 1.89 µM (inactive); in test [9], 1.47 µM (inactive); in test [10] it was 1.79 µM (inactive); in [11], 1.66 µM (inactive). In addition, the GI50 in test [12] was 1.93 µM (inactive); in test [13], 1.8 µM (inactive); in [14] it was 1.68 µM (inactive); in test [15], 2.62 µM (inactive).

As to `CCN(CCC#N)C(=O)Nc1ccccc1`, the GI50 was > 100 µM (inactive) in test [16]; > 100 µM (inactive) in test [17]; > 100 µM (inactive) in test [18]; > 100 µM (inactive) in [1]; > 100 µM (inactive) in [2]; 62.7 µM (inactive) in test [3]. Besides, the GI50 in test [4], in test [5], in test [6], in [7], in [8] and in test [9] was > 100 µM (inactive) throughout. Besides, the GI50 in test [10], in test [11], in [13], in [19], in [14] and in [20] was > 100 µM (inactive) in each case. The GI50 in test [15] was > 100 µM (inactive).

Regarding `O=C1/C(=N/CCc2cc(Br)c(O)c(Br)c2)C=C(O)c2cccnc21`, the GI50 in [16] was 2.24 µM (inactive); in [17] it was 4.75 µM (inactive); in test [18] it was 1.61 µM (inactive); in [1], 1.56 µM (inactive); in test [2] it was 2.6 µM (inactive); in [3], 1.21 µM (inactive). Also, the GI50 is 2.03 µM (inactive) in test [4]; 5.04 µM (inactive) in test [5]; 1.24 µM (inactive) in [6]; 6.75 µM (inactive) in test [7]; 2.1 µM (inactive) in test [8]; 5.24 µM (inactive) in test [9]. Moreover, the GI50 is 1.59 µM (inactive) in test [10]; 1.11 µM (active) in test [11]; 1.17 µM (inactive) in [13]; 0.918 µM (active) in [19]; 2.3 µM (inactive) in test [14]; 7.78 µM (inactive) in [20]. The GI50 in test [15] is 2.82 µM (inactive).
